{"source": "paper PMC2229473", "about": "(The Journal of General Physiology, 1999)", "key": {"KcsA K^+ channel [1]": {"molecular_target": "T1, KcsA K^+ channel (Streptomyces lividans, UniProt P0A334, Y82C)", "T1 sequence (P0A334 1-160 Y82C)": "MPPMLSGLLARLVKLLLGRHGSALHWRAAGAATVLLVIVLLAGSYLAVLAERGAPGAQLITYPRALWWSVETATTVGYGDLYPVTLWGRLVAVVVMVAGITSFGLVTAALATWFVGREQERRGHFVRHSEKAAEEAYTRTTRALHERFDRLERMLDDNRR", "assay": "single-channel recording in planar lipid bilayer, block of open-channel current", "format": "biochemical"}, "KcsA K^+ channel [2]": {"molecular_target": "T2, KcsA K^+ channel (Streptomyces lividans, UniProt P0A334)", "T2 sequence (P0A334 1-160)": "T1 sequence (P0A334 1-160 Y82C)", "assay": "single-channel recording in planar lipid bilayer, block of open-channel current", "format": "biochemical"}}, "note": "pKi: −log10 of the molar value."}
{"smiles": "CC[N+](CC)(CC)CC", "note": "[TEA, tetraethylammonium]", "values": [{"measurement": "pKi", "setting": "KcsA K^+ channel [1]", "value": 1.64}, {"measurement": "pKi", "setting": "KcsA K^+ channel [2]", "value": 2.49}]}
